Data reported in ChEMBL document CHEMBL1125092, “Nonneurotoxic tetralin and indan analogues of 3,4-(methylenedioxy)amphetamine (MDA)” (J Med Chem, 1990).

What was measured:
Rattus norvegicus [1] = test: Hallucinogenic property was determined in groups of LSD trained rats and percentage of animals disrupted was reported at a dose 3.88 (umol/kg),(number of animals = 10); assay type: functional
Rattus norvegicus [2] = test: Percentage of animals disrupted was determined in groups of LSD trained rats at a dose of 10.67 (umol/kg),(no of animals = 5); assay type: functional
Rattus norvegicus [3] = test: Hallucinogenic property was determined in groups of LSD trained rats and percentage of animals disrupted was reported at a dose 9.70 (umol/kg),(number of animals = 13); assay type: functional
Rattus norvegicus [4] = test: Hallucinogenic property was determined in groups of MDMA trained rats and percentage of animals disrupted was reported at a dose 11.64 (umol/kg),(number of animals = 6); assay type: functional
Rattus norvegicus [5] = test: Hallucinogenic property was determined in groups of MDMA trained rats and percentage of animals disrupted was reported at a dose 3.88 (umol/kg),(number of animals = 11); assay type: functional
Rattus norvegicus [6] = test: Hallucinogenic property was determined in groups of MDMA trained rats and percentage of animals disrupted was reported at a dose 7.76 (umol/kg),(number of animals = 11); assay type: functional
Rattus norvegicus [7] = test: Hallucinogenic property was determined in groups of LSD trained rats and percentage of animals disrupted was reported at a dose 7.77 (umol/kg),(number of animals = 15); assay type: functional
Rattus norvegicus [8] = test: Hallucinogenic property was determined in groups of LSD trained rats and percentage of animals disrupted was reported at 5.82 (umol/kg),(number of animals = 11); assay type: functional
Rattus norvegicus [9] = test: Percentage of animals disrupted was determined in groups of MDMA trained rats at a dose 1.94 (umol/kg),(no of animals=10); assay type: functional
Rattus norvegicus [10] = test: Tested for stimulus generation in rats trained to discriminate LSD from saline at a dose 3.88 (umol/kg),(number of animals = 10); assay type: functional
Rattus norvegicus [11] = test: Tested for stimulus generation in rats trained to discriminate +/-MDMA from saline at 3.88 (umol/kg),(number of animals = 11); assay type: functional
Rattus norvegicus [12] = test: Tested for stimulus generation in rats trained to discriminate +/-MDMA from saline at 1.94 (umol/kg),(number of animals = 10); assay type: functional
Rattus norvegicus [13] = test: Tested for stimulus generation in rats trained to discriminate +/-MDMA from saline at 7.76 (umol/kg),(number of animals = 11); assay type: functional
Rattus norvegicus [14] = test: Tested for stimulus generation in rats trained to discriminate LSD from saline at a dose 5.82 (umol/kg),(number of animals = 11); assay type: functional
Rattus norvegicus [15] = test: Tested for stimulus generation in rats trained to discriminate LSD from saline at a dose 7.77 (umol/kg),(number of animals = 15); assay type: functional
Rattus norvegicus [16] = test: Tested for stimulus generation in rats trained to discriminate LSD from saline at a dose 9.70 (umol/kg),(number of animals = 13); assay type: functional
Rattus norvegicus [17] = test: Hallucinogenic property was determined in groups of LSD trained rats and percentage of animals disrupted was reported at a dose 4.39 (umol/kg),(number of animals = 12); assay type: functional
Rattus norvegicus [18] = test: Hallucinogenic property was determined in groups of LSD trained rats and percentage of animals disrupted was reported at a dose 0.55 (umol/kg),(number of animals = 9); assay type: functional
Rattus norvegicus [19] = test: Hallucinogenic property was determined in groups of LSD trained rats and percentage of animals disrupted was reported at a dose 2.2 (umol/kg),(number of animals = 8); assay type: functional
Rattus norvegicus [20] = test: Hallucinogenic property was determined in groups of LSD trained rats and percentage of animals disrupted was reported at a dose 2.74 (umol/kg),(number of animals = 8); assay type: functional
Rattus norvegicus [21] = test: Hallucinogenic property was determined in groups of LSD trained rats and percentage of animals disrupted was reported at a dose 8.78 (umol/kg),(number of animals = 11); assay type: functional
Rattus norvegicus [22] = test: Hallucinogenic property was determined in groups of MDMA trained rats and percentage of animals disrupted was reported at 8.78 (umol/kg),(number of animals = 12; assay type: functional
Rattus norvegicus [23] = test: Hallucinogenic property was determined in groups of MDMA trained rats and percentage of animals disrupted was reported at a dose 1.1 (umol/kg),(number of animals = 8; assay type: functional
Rattus norvegicus [24] = test: Hallucinogenic property was determined in groups of MDMA trained rats and percentage of animals disrupted was reported at a dose 2.2 (umol/kg),(number of animals = 11; assay type: functional
Rattus norvegicus [25] = test: Hallucinogenic property was determined in groups of MDMA trained rats and percentage of animals disrupted was reported at a dose 2.74 umol/kg),(number of animals = 12; assay type: functional
Rattus norvegicus [26] = test: Hallucinogenic property was determined in groups of MDMA trained rats and percentage of animals disrupted was reported at a dose 3.29 (umol/kg),(number of animals =10; assay type: functional
Rattus norvegicus [27] = test: Hallucinogenic property was determined in groups of MDMA trained rats and percentage of animals disrupted was reported at a dose 4.39 (umol/kg),(number of animals = 9); assay type: functional
Rattus norvegicus [28] = test: Hallucinogenic property was determined in groups of MDMA trained rats and percentage of animals disrupted was reported at a dose 6.59 (umol/kg),(number of animals = 9; assay type: functional
Rattus norvegicus [29] = test: Hallucinogenic property was determined in groups of MDMA trained rats and percentage of animals disrupted was reported at a dose 7.69 (umol/kg),(number of animals = 12); assay type: functional
Rattus norvegicus [30] = test: Hallucinogenic property was determined in groups of MDMA trained rats and percentage of animals selecting drug lever was reported at 13.18 (umol/kg),(number of animals = 5; assay type: functional
Rattus norvegicus [31] = test: Hallucinogenic property was determined in groups of LSD trained rats and percentage of animals disrupted was reported at a dose 6.59 (umol/kg),(number of animals = 15); assay type: functional
Rattus norvegicus [32] = test: Hallucinogenic property was determined in groups of LSD trained rats and percentage of animals disrupted was reported at 1.10 (umol/kg),(number of animals = 9); assay type: functional
Rattus norvegicus [33] = test: Tested for stimulus generation in rats trained to discriminate LSD from saline at a dose 0.55 (umol/kg),(number of animals = 9); assay type: functional
Rattus norvegicus [34] = test: Tested for stimulus generation in rats trained to discriminate LSD from saline at a dose 1.10 (umol/kg),(number of animals = 9); assay type: functional
Rattus norvegicus [35] = test: Tested for stimulus generation in rats trained to discriminate LSD from saline at a dose 2.74 (umol/kg),(number of animals = 8); assay type: functional
Rattus norvegicus [36] = test: Tested for stimulus generation in rats trained to discriminate LSD from saline at 2.2 (umol/kg),(number of animals = 8); assay type: functional
Rattus norvegicus [37] = test: Tested for stimulus generation in rats trained to discriminate +/-MDMA from saline at 1.10 (umol/kg),(number of animals = 8); assay type: functional
Rattus norvegicus [38] = test: Tested for stimulus generation in rats trained to discriminate +/-MDMA from saline at 6.59 (umol/kg),(number of animals = 9); assay type: functional
Rattus norvegicus [39] = test: Tested for stimulus generation in rats trained to discriminate +/-MDMA from saline at 7.69 (umol/kg),(number of animals = 12); assay type: functional
Rattus norvegicus [40] = test: Tested for stimulus generation in rats trained to discriminate +/-MDMA from saline at 8.78 (umol/kg),(number of animals = 12); assay type: functional
Rattus norvegicus [41] = test: Tested for disruption in more than 50% rats trained to discriminate LSD from saline at a dose 8.78(uM/kg) (no. of animals =11); assay type: functional
Rattus norvegicus [42] = test: Tested for stimulus generation in rats trained to discriminate LSD from saline at a dose 6.59 (umol/kg),(number of animals = 15); assay type: functional
Rattus norvegicus [43] = test: Tested for stimulus generation in rats trained to discriminate +/-MDMA from saline at 2.2 (umol/kg),(number of animals = 11); assay type: functional
Rattus norvegicus [44] = test: Tested for stimulus generation in rats trained to discriminate +/-MDMA from saline at 2.74 (umol/kg),(number of animals = 12); assay type: functional
Rattus norvegicus [45] = test: Tested for stimulus generation in rats trained to discriminate +/-MDMA from saline at 3.29 (umol/kg),(number of animals = 10); assay type: functional
Rattus norvegicus [46] = test: Tested for stimulus generation in rats trained to discriminate +/-MDMA from saline at 4.39 (umol/kg),(number of animals = 9); assay type: functional
Rattus norvegicus [47] = test: Tested for stimulus generation in rats trained to discriminate LSD from saline at a dose 4.39 (umol/kg),(number of animals = 12); assay type: functional
Rattus norvegicus [48] = organism: Rattus norvegicus; test: Compounds were evaluated for binding of [3H]paroxetine to rat brain cortical homogenate and number of binding sites (Bmax) for serotonin; assay type: tissue-based
[49] = Binding affinity was determined towards serotonin uptake site in presence of [3H]paroxetine radioligand in rat brain cortical homogenate; assay type: tissue-based
[50] = Binding affinity was determined towards serotonin uptake site in presence of [3H]paroxetine radioligand in rat hippocampal homogenate; assay type: tissue-based, Hippocampus
Rattus norvegicus [51] = organism: Rattus norvegicus; test: Compounds were evaluated for binding of [3H]paroxetine to rat hippocampal homogenate and number of binding sites (Bmax) for serotonin; assay type: tissue-based; conditions: Hippocampus
Rattus norvegicus [52] = test: Percentage of animals disrupted was determined in groups of MDMA trained rats at a dose of 3.81 (umol/kg),(no of animals = 8); assay type: functional
Rattus norvegicus [53] = test: Percentage of animals disrupted was determined in groups of MDMA trained rats at a dose of 7.62 (umol/kg),(no of animals = 8); assay type: functional
Rattus norvegicus [54] = test: Percentage of animals disrupted was determined in groups of MDMA trained rats at a dose of 0.95 (umol/kg),(no of animals = 8); assay type: functional
Rattus norvegicus [55] = test: Percentage of animals disrupted was determined in groups of MDMA trained rats at a dose of 1.90 (umol/kg),(no of animals = 8); assay type: functional
Rattus norvegicus [56] = test: Monoamine levels in at hippocampus were evaluated after subcutaneous administration of 40 mg/kg for NE; assay type: functional
Rattus norvegicus [57] = test: Monoamine levels in rat brain were evaluated after subcutaneous administration of 40 mg/kg for 5-HIAA; assay type: functional
Rattus norvegicus [58] = test: Monoamine levels in rat brain were evaluated after subcutaneous administration of 40 mg/kg for 5-HT; assay type: functional
Rattus norvegicus [59] = test: Monoamine levels in rat brain were evaluated after subcutaneous administration of 40 mg/kg for DA; assay type: functional
Rattus norvegicus [60] = test: Monoamine levels in rat brain were evaluated after subcutaneous administration of 40 mg/kg for DOPAC; assay type: functional
Rattus norvegicus [61] = test: Monoamine levels in rat brain were evaluated after subcutaneous administration of 40 mg/kg for HVA; assay type: functional
Rattus norvegicus [62] = test: Monoamine levels in rat hippocampus were evaluated after subcutaneous administration of 40 mg/kg for 5-HIAA; assay type: functional
Rattus norvegicus [63] = test: Monoamine levels in rat hippocampus were evaluated after subcutaneous administration of 40 mg/kg for 5-HT; assay type: functional
Rattus norvegicus [64] = test: Tested for stimulus generation in rats trained to discriminate MDMA from saline at a dose 1.90 (umol/kg) (number of animals = 8); assay type: functional
Rattus norvegicus [65] = test: Tested for stimulus generation in rats trained to discriminate MDMA from saline at a dose 3.81 (umol/kg),(number of animals = 8); assay type: functional
Rattus norvegicus [66] = test: Tested for stimulus generation in rats trained to discriminate MDMA from saline at a dose 7.62 (umol/kg),(number of animals = 8); assay type: functional
Rattus norvegicus [67] = test: Monoamine levels in rat brain were evaluated after subcutaneous administration of 40 mg/kg for NE; assay type: functional

COc1cc(C)c(OC)c2c1CC(N)CC2 (configuration not stated)
D (Rattus norvegicus [1]): 20%
D (Rattus norvegicus [2]): 100%
D (Rattus norvegicus [3]): 69%
D (Rattus norvegicus [4]): 83%
D (Rattus norvegicus [5]): 27%
D (Rattus norvegicus [6]): 27%
D (Rattus norvegicus [7]): 47%
D (Rattus norvegicus [8]): 27%
D (Rattus norvegicus [9]): 20%
SDL (Rattus norvegicus [10]): 25%
SDL (Rattus norvegicus [11]): 50%
SDL (Rattus norvegicus [12]): 38%
SDL (Rattus norvegicus [13]): 38%
SDL (Rattus norvegicus [14]): 38%
SDL (Rattus norvegicus [15]): 13%
SDL (Rattus norvegicus [16]): 0%

NC1CCc2c(ccc3c2OCO3)C1 (configuration not stated)
D (Rattus norvegicus [17]): 33%
D (Rattus norvegicus [18]): 11%
D (Rattus norvegicus [19]): 0%
D (Rattus norvegicus [20]): 0%
D (Rattus norvegicus [21]): 55%
D (Rattus norvegicus [22]): 42%
D (Rattus norvegicus [23]): 38%
D (Rattus norvegicus [24]): 27%
D (Rattus norvegicus [25]): 33%
D (Rattus norvegicus [26]): 20%
D (Rattus norvegicus [27]): 11%
D (Rattus norvegicus [28]): 11%
D (Rattus norvegicus [29]): 33%
D (Rattus norvegicus [30]): 100%
D (Rattus norvegicus [31]): 47%
D (Rattus norvegicus [32]): 11%
SDL (Rattus norvegicus [33]): 0%
SDL (Rattus norvegicus [34]): 13%
SDL (Rattus norvegicus [35]): 25%
SDL (Rattus norvegicus [36]): 25%
SDL (Rattus norvegicus [37]): 0%
SDL (Rattus norvegicus [38]): 75%
SDL (Rattus norvegicus [39]): 75%
SDL (Rattus norvegicus [40]): 71%
SDL (Rattus norvegicus [41]): 71%
SDL (Rattus norvegicus [42]): 38%
SDL (Rattus norvegicus [43]): 63%
SDL (Rattus norvegicus [44]): 63%
SDL (Rattus norvegicus [45]): 63%
SDL (Rattus norvegicus [46]): 50%
SDL (Rattus norvegicus [47]): 25%

CNC(C)Cc1ccc2c(c1)OCO2 (configuration not stated) [MIDOMAFETAMINE]
Bmax (Rattus norvegicus [48]): < 643 fM/g
Kd [49]: 0.123 nM
Kd [50]: 0.195 nM
Bmax (Rattus norvegicus [51]): < 348 fM/g
D (Rattus norvegicus [52]): 0%
D (Rattus norvegicus [53]): 0%
D (Rattus norvegicus [54]): 0%
D (Rattus norvegicus [55]): 0%
Monoamine level (Rattus norvegicus [56]): 429 pg/mg
Monoamine level (Rattus norvegicus [57]): <230 pg/mg
Monoamine level (Rattus norvegicus [58]): <161 pg/mg
Monoamine level (Rattus norvegicus [59]): 151 pg/mg
Monoamine level (Rattus norvegicus [60]): 212 pg/mg
Monoamine level (Rattus norvegicus [61]): 318 pg/mg
Monoamine level (Rattus norvegicus [62]): <256 pg/mg
Monoamine level (Rattus norvegicus [63]): <105 pg/mg
SDL (Rattus norvegicus [64]): 25%
SDL (Rattus norvegicus [65]): 75%
SDL (Rattus norvegicus [66]): 100%
Monoamine level (Rattus norvegicus [67]): 375 pg/mg
